Measurements as given in patent US5358951A, “Angiotensin II receptor blocking 2, 3, 6 substituted quinazolinones” (American Cyanamid Company, priority 1993, dated 1994).

Tested on: vasopressor response of angiotensin II
Experiment: AII Challenge: antagonism of angiotensin II vasopressor response
Type: in vivo
Settings: 1 mg/kg i.v.; for inhibition in vivo at 1 mg/kg: Rattus norvegicus, iv
How it was run: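 Percent antagonism is based on the systolic blood pressure rise (mmHg) to i.v. angiotensin II at 0.05 and 0.1 ug/kg. Each rat's own predose response was taken as 100%. Challenges were repeated from 30 to 300 min after i.v., i.p. or oral compound in cannulated conscious male SHR, 16-20 weeks old.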

[1] = AII 0.05 mcg/kg IV, 30 min post dose
[2] = AII 0.05 mcg/kg IV, 60 min post dose
[3] = AII 0.05 mcg/kg IV, 90 min post dose
[4] = AII 0.05 mcg/kg IV, 120 min post dose
[5] = AII 0.05 mcg/kg IV, 180 min post dose
[6] = AII 0.05 mcg/kg IV, 240 min post dose
[7] = AII 0.05 mcg/kg IV, 300 min post dose
[8] = AII 0.1 mcg/kg IV, 30 min post dose
[9] = AII 0.1 mcg/kg IV, 60 min post dose
[10] = AII 0.1 mcg/kg IV, 90 min post dose
[11] = AII 0.1 mcg/kg IV, 120 min post dose
[12] = AII 0.1 mcg/kg IV, 180 min post dose
[13] = AII 0.1 mcg/kg IV, 240 min post dose
[14] = AII 0.1 mcg/kg IV, 300 min post dose
[15] = 0.5 h, AII 0.05 mcg/kg IV, 30 min post dose
[16] = 0.5 h, AII 0.1 mcg/kg IV, 30 min post dose
[17] = 1 h, AII 0.05 mcg/kg IV, 60 min post dose
[18] = 1 h, AII 0.1 mcg/kg IV, 60 min post dose
[19] = 2 h, AII 0.05 mcg/kg IV, 120 min post dose
[20] = 2 h, AII 0.1 mcg/kg IV, 120 min post dose
[21] = 3 h, AII 0.05 mcg/kg IV, 180 min post dose
[22] = 3 h, AII 0.1 mcg/kg IV, 180 min post dose
[23] = 4 h, AII 0.05 mcg/kg IV, 240 min post dose
[24] = 5 h, AII 0.05 mcg/kg IV, 300 min post dose
[25] = 5 h, AII 0.1 mcg/kg IV, 300 min post dose
[26] = […], AII 0.05 mcg/kg IV, 90 min post dose
[27] = […], AII 0.1 mcg/kg IV, 90 min post dose

SMILES	Response Average Change [1]	Response Average Change [2]	Response Average Change [3]	Response Average Change [4]	Response Average Change [5]	Response Average Change [6]	Response Average Change [7]	Response Average Change [8]	Response Average Change [9]	Response Average Change [10]	Response Average Change [11]	Response Average Change [12]	Response Average Change [13]	Response Average Change [14]	inhibition in vivo at 1 mg/kg [15]	inhibition in vivo at 1 mg/kg [16]	inhibition in vivo at 1 mg/kg [17]	inhibition in vivo at 1 mg/kg [18]	inhibition in vivo at 1 mg/kg [19]	inhibition in vivo at 1 mg/kg [20]	further results
CCCCc1nc2ccc([C@@]3(c4ccccc4)C[C@@H]4CCCN4O3)cc2c(=O)n1Cc1ccc(-c2ccccc2-c2nnn[nH]2)cc1 (relative stereo) [Example 70, Cis-2-butyl-6-(hexahydro-2-phenylpyrrolo-[1,2-b]isoxazol-2-yl)-3-[[2'-(1H-tetrazol-5-yl)[1,1'-biphenyl]-4-yl]methyl]-4(3H)-quinazolinone]	23.5 mmHg	12.5 mmHg	12.5 mmHg	20 mmHg	20 mmHg	27.5 mmHg	30 mmHg	30 mmHg	17.5 mmHg	30.5 mmHg	26 mmHg	30 mmHg	30 mmHg	37.5 mmHg	48%	37%	72%	63%	56%	45%	inhibition in vivo at 1 mg/kg [21]: 56%; inhibition in vivo at 1 mg/kg [22]: 37%; inhibition in vivo at 1 mg/kg [23]: 39%; inhibition in vivo at 1 mg/kg (4 h, AII 0.1 mcg/kg IV, 240 min post dose): 37%; inhibition in vivo at 1 mg/kg [24]: 33%; inhibition in vivo at 1 mg/kg [25]: 21%; inhibition in vivo at 1 mg/kg [26]: 72%; inhibition in vivo at 1 mg/kg [27]: 36%
CCCCc1nc2ccc([C@]3(CC)C[C@@H]4CCCN4O3)cc2c(=O)n1Cc1ccc(-c2ccccc2-c2nnn[nH]2)cc1 (relative stereo) [Example 72, Trans-2-butyl-6-(2-ethylhexahydropyrrolo[1,2-b]isoxazol-2-yl)-3-[[2'-(1H-tetrazol-5-yl)[1,1'-biphenyl]-4-yl]methyl]-4(3H)-quinazolinone]	20 mmHg	15 mmHg	17.5 mmHg	22.5 mmHg	36.5 mmHg	30 mmHg	37.5 mmHg	25.5 mmHg	17.5 mmHg	32.5 mmHg	25 mmHg	35 mmHg	40 mmHg	42.5 mmHg	60%	58%	70%	71%	55%	58%	inhibition in vivo at 1 mg/kg [21]: 27%; inhibition in vivo at 1 mg/kg [22]: 42%; inhibition in vivo at 1 mg/kg [23]: 40%; inhibition in vivo at 1 mg/kg [24]: 35%; inhibition in vivo at 1 mg/kg [25]: 29%; inhibition in vivo at 1 mg/kg [26]: 65%; inhibition in vivo at 1 mg/kg [27]: 46%
